This note sets out measurements from PubChem BioAssay AID256 (DTP/NCI, 2004).

The test system of the test is CD2F1 mice, L1210 leukemia ip, survival T/C. Kind of test: NCI In Vivo Anticancer Drug Screen. Data for tumor model L1210 Leukemia (intraperitoneal) in CD2F1 (CDF1) mice. Conditions: higher = longer survival. An outline of the steps: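 Mice carrying a transplanted tumor received test compound or vehicle alone. The value is the measurement in the treated group divided by that in the vehicle-treated control group.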

The mark [1] stands for this setting: endpoint: mean survival time, dose: 200.0 mg/kg/injection, schedule: Q01DX009 (ip), vehicle: saline.
[2] abbreviates: endpoint: mean survival time, dose: 50.0 mg/kg/injection, schedule: Q01DX009 (ip), vehicle: saline with Tween-80.
Setting [3] is: endpoint: mean survival time, dose: 100.0 mg/kg/injection, schedule: Q01DX009 (ip), vehicle: saline with Tween-80.
Setting [4] is: endpoint: mean survival time, dose: 100.0 mg/kg/injection, schedule: Q04DX003 (ip), vehicle: saline with Tween-80.
[5] abbreviates: endpoint: mean survival time, dose: 200.0 mg/kg/injection, schedule: Q04DX003 (ip), vehicle: saline with Tween-80.
Where [6] appears, read: endpoint: mean survival time, dose: 400.0 mg/kg/injection, schedule: Q04DX003 (ip), vehicle: saline with Tween-80.

Inconclusive results and toxic doses are left out.

Consider `CNC(=S)SC1=NS(=O)(=O)c2ccccc2N1`, for which the T/C (endpoint: median survival time, dose: 25.0 mg/kg/injection, schedule: Q01DX005 (ip), vehicle: Klucel (hydroxypropylcellulose) (HPC)) was 106 % of control; the T/C (endpoint: median survival time, dose: 50.0 mg/kg/injection, schedule: Q01DX005 (ip), vehicle: Klucel (hydroxypropylcellulose) (HPC)) is 101 % of control; the T/C (endpoint: median survival time, dose: 100.0 mg/kg/injection, schedule: Q01DX005 (ip), vehicle: Klucel (hydroxypropylcellulose) (HPC)) was 108 % of control; the T/C (endpoint: median survival time, dose: 144.0 mg/kg/injection, schedule: Q01DX005 (ip), vehicle: Klucel (hydroxypropylcellulose) (HPC)) is 113 % of control; the T/C (endpoint: median survival time, dose: 200.0 mg/kg/injection, schedule: Q01DX005 (ip), vehicle: Klucel (hydroxypropylcellulose) (HPC)) was 118 % of control.

Consider `OCC1OC(n2cnc3c(SCc4ccccc4)ncnc32)C(O)C1O` (centres undefined), for which the T/C (endpoint: mean survival time, dose: 78.0 mg/kg/injection, schedule: Q01DX001 (ip), vehicle: saline) was 104 % of control; the T/C (endpoint: mean survival time, dose: 100.0 mg/kg/injection, schedule: Q04DX003 (ip), vehicle: saline) was 101 % of control; the T/C (endpoint: mean survival time, dose: 117.0 mg/kg/injection, schedule: Q01DX001 (ip), vehicle: saline) was 109 % of control; the T/C (endpoint: mean survival time, dose: 132.0 mg/kg/injection, schedule: Q01DX009 (ip), vehicle: saline) was 176 % of control; the T/C under setting [1] was 187 % of control; the T/C (endpoint: mean survival time, dose: 200.0 mg/kg/injection, schedule: Q04DX003 (ip), vehicle: saline) was 98 % of control. The T/C was 152 % of control (endpoint: mean survival time, dose: 400.0 mg/kg/injection, schedule: Q01DX001 (ip), vehicle: other) and 104 % of control (endpoint: mean survival time, dose: 400.0 mg/kg/injection, schedule: Q04DX003 (ip), vehicle: saline).

Turning to `C#CCNC1=C(C)C(=O)C2=C(C1=O)[C@H](COC(N)=O)[C@]1(O)[C@H]3[C@@H](CN21)N3C` (some centres undefined), the T/C was 104 % of control (endpoint: mean survival time, dose: 1.5 mg/kg/injection, schedule: Q01DX001 (ip), vehicle: water); 102 % of control (endpoint: mean survival time, dose: 3.0 mg/kg/injection, schedule: Q01DX001 (ip), vehicle: water); 100 % of control (endpoint: mean survival time, dose: 6.0 mg/kg/injection, schedule: Q01DX001 (ip), vehicle: water); 110 % of control (endpoint: mean survival time, dose: 12.0 mg/kg/injection, schedule: Q01DX001 (ip), vehicle: water); 110 % of control (endpoint: mean survival time, dose: 24.0 mg/kg/injection, schedule: Q01DX001 (ip), vehicle: water).

`CCCCCCCCCCCCCCCC(=O)N1CCN(C)CC1`: the T/C is, setting by setting: under setting [2], 89 % of control; under setting [3], 91 % of control; under setting [4], 93 % of control; under setting [5], 90 % of control.

On to `NCCNc1ccc(NCCN)c2c1C(=O)c1ccccc1C2=O`, for which the T/C runs as follows: (endpoint: mean survival time, dose: 2.0 mg/kg/injection, schedule: Q01DX009 (ip), vehicle: acid diluted with saline) 159 % of control; (endpoint: mean survival time, dose: 4.0 mg/kg/injection, schedule: Q01DX009 (ip), vehicle: acid diluted with saline) 175 % of control; (endpoint: mean survival time, dose: 6.25 mg/kg/injection, schedule: Q01DX009 (ip), vehicle: distilled water + Tween-80) 156 % of control; (endpoint: mean survival time, dose: 8.0 mg/kg/injection, schedule: Q01DX009 (ip), vehicle: acid diluted with saline) 345 % of control; (endpoint: mean survival time, dose: 12.5 mg/kg/injection, schedule: Q01DX009 (ip), vehicle: distilled water + Tween-80) 227 % of control; (endpoint: mean survival time, dose: 16.0 mg/kg/injection, schedule: Q01DX009 (ip), vehicle: acid diluted with saline) 98 % of control. The T/C (endpoint: mean survival time, dose: 25.0 mg/kg/injection, schedule: Q01DX009 (ip), vehicle: distilled water + Tween-80) is 272 % of control.

As for `COC1=C(C#N)CC2(C)C(CCC3C2CCC2(C)C(C(C)CCCC(C)C)CCC32)C1` (centres undefined), the T/C was 92 % of control (endpoint: mean survival time, dose: 100.0 mg/kg/injection, schedule: Q04DX003 (ip), vehicle: saline sonified); 93 % of control (endpoint: mean survival time, dose: 200.0 mg/kg/injection, schedule: Q04DX003 (ip), vehicle: saline sonified); 92 % of control (endpoint: mean survival time, dose: 400.0 mg/kg/injection, schedule: Q04DX003 (ip), vehicle: saline sonified).

Consider `O=C(O)CC(=O)O.[NH-]CC(O)CN=Cc1ccccc1O.[Pt]` (centres undefined), for which the T/C runs as follows: (endpoint: median survival time, dose: 5.0 mg/kg/injection, schedule: Q04DX003 (ip), vehicle: water) 108 % of control; (endpoint: median survival time, dose: 10.0 mg/kg/injection, schedule: Q04DX003 (ip), vehicle: water) 105 % of control; (endpoint: median survival time, dose: 20.0 mg/kg/injection, schedule: Q04DX003 (ip), vehicle: water) 108 % of control; (endpoint: median survival time, dose: 25.0 mg/kg/injection, schedule: Q04DX003 (ip), vehicle: water) 110 % of control; (endpoint: median survival time, dose: 40.0 mg/kg/injection, schedule: Q04DX003 (ip), vehicle: water) 108 % of control; (endpoint: median survival time, dose: 50.0 mg/kg/injection, schedule: Q04DX003 (ip), vehicle: water) 110 % of control. Further, the T/C reads like this: (endpoint: median survival time, dose: 100.0 mg/kg/injection, schedule: Q04DX003 (ip), vehicle: water) 105 % of control; (endpoint: median survival time, dose: 200.0 mg/kg/injection, schedule: Q04DX003 (ip), vehicle: water) 103 % of control.

For the molecule `O=C(O)C(/C=C/c1ccccc1)c1ccccc1` (centres undefined), the T/C is 112 % of control (endpoint: mean survival time, dose: 100.0 mg/kg/injection, schedule: Q01DX001 (ip), vehicle: saline with Tween-80); 101 % of control under setting [3]; 92 % of control under setting [4]; 95 % of control (endpoint: mean survival time, dose: 200.0 mg/kg/injection, schedule: Q01DX001 (ip), vehicle: saline with Tween-80); 91 % of control under setting [5]; 88 % of control (endpoint: mean survival time, dose: 400.0 mg/kg/injection, schedule: Q01DX001 (ip), vehicle: saline with Tween-80). For the same molecule, the T/C (endpoint: mean survival time, dose: 400.0 mg/kg/injection, schedule: Q01DX009 (ip), vehicle: saline with Tween-80) is 103 % of control and the T/C under setting [6] was 91 % of control.

Take `COc1ccc(CC(=O)NC(C)Cc2ccc(OC)c(OC)c2)cc1OC` (centres undefined): the T/C (endpoint: mean survival time, dose: 12.5 mg/kg/injection, schedule: Q01DX009 (ip), vehicle: water) was 91 % of control; the T/C (endpoint: mean survival time, dose: 25.0 mg/kg/injection, schedule: Q01DX009 (ip), vehicle: water) was 89 % of control; the T/C (endpoint: mean survival time, dose: 50.0 mg/kg/injection, schedule: Q01DX009 (ip), vehicle: water) is 95 % of control; the T/C (endpoint: mean survival time, dose: 100.0 mg/kg/injection, schedule: Q01DX009 (ip), vehicle: water) was 94 % of control; the T/C (endpoint: mean survival time, dose: 200.0 mg/kg/injection, schedule: Q01DX009 (ip), vehicle: water) is 91 % of control.

As for `CC(CC=O)CCCC(C)(C)O` (centres undefined), the T/C under setting [4] was 103 % of control, the T/C under setting [5] is 95 % of control and the T/C under setting [6] is 98 % of control.

Take `COC1OCC(O)C(O)C1O` (centres undefined): the T/C was 101 % of control (endpoint: mean survival time, dose: 100.0 mg/kg/injection, schedule: Q01DX009 (ip), vehicle: saline); 98 % of control under setting [1]; 98 % of control (endpoint: mean survival time, dose: 400.0 mg/kg/injection, schedule: Q01DX009 (ip), vehicle: saline).

In the case of `O=[N+]([O-])C1(Br)C(c2ccccc2)C=CC(c2ccccc2)C1c1ccccc1` (centres undefined), the T/C runs as follows: under setting [4], 95 % of control; under setting [5], 95 % of control; under setting [6], 91 % of control.

On to `CC(=O)OC1CCC2(C)C(=CCC3C2CCC2(C)C3CC3OC4(CCC(C)CO4)C(C)C32)C1` (centres undefined), for which the T/C was 95 % of control (endpoint: mean survival time, dose: 100.0 mg/kg/injection, schedule: Q04DX003 (ip), vehicle: other); 94 % of control (endpoint: mean survival time, dose: 200.0 mg/kg/injection, schedule: Q04DX003 (ip), vehicle: other); 94 % of control (endpoint: mean survival time, dose: 400.0 mg/kg/injection, schedule: Q04DX003 (ip), vehicle: other).

As for `CN(CCS(=O)(=O)O)/N=C/c1ccc2c(c1)OCO2`, the T/C (endpoint: mean survival time, dose: 25.0 mg/kg/injection, schedule: Q04DX003 (ip), vehicle: acetone) is 97 % of control; the T/C (endpoint: mean survival time, dose: 50.0 mg/kg/injection, schedule: Q04DX003 (ip), vehicle: acetone) was 103 % of control; the T/C (endpoint: mean survival time, dose: 100.0 mg/kg/injection, schedule: Q04DX003 (ip), vehicle: acetone) was 98 % of control.

On to `O=C1CCCN1C1CC2c3ccccc3C1c1cccc[n+]12` (centres undefined), for which the T/C was 95 % of control (endpoint: mean survival time, dose: 5.0 mg/kg/injection, schedule: Q04DX003 (ip), vehicle: saline with Tween-80); 95 % of control (endpoint: mean survival time, dose: 10.0 mg/kg/injection, schedule: Q04DX003 (ip), vehicle: saline with Tween-80); 97 % of control (endpoint: mean survival time, dose: 20.0 mg/kg/injection, schedule: Q04DX003 (ip), vehicle: saline with Tween-80).

Regarding `Cc1cc(O)c(N=Nc2ccc(Br)cc2)cc1C`, the T/C under setting [2] is 97 % of control; the T/C under setting [3] is 93 % of control; the T/C (endpoint: mean survival time, dose: 200.0 mg/kg/injection, schedule: Q01DX009 (ip), vehicle: saline with Tween-80) was 97 % of control.
